# Assays:
# M. tuberculosis Kurono = assay: Antibacterial test, agar-plate dilution method (minimum inhibitory concentration), Test Example 2; type: cell-based; settings: 7H11 agar medium, 37° C. for 14 days; for MIC: Mycobacterium tuberculosis, 336 h
# [1] = tested on: Mycobacterium tuberculosis (H37Rv strain); settings: in vitro, literature report; cited from earlier work
# M. avium = settings: used at 250 μg/ml or less; cited from earlier work
# M. fortuitum = settings: used at 250 μg/ml or less; cited from earlier work
# M. intracellulare = settings: used at 250 μg/ml or less; cited from earlier work
SMILES,melting point,other results
"C[C@]1(COc2ccc(N3CCC(CC=Cc4ccc(C(F)(F)F)cc4)CC3)cc2)Cn2cc([N+](=O)[O-])nc2O1 [Example 8, (R)-2-methyl-6-nitro-2-(4-(4-(3-(4-trifluoromethyphenyl)-2-propenyl)piperidine-1-yl)phenoxymethyl)-2,3-dihydroimidazo[2,1-b]oxazole]",–,Minimum Inhibitory Concentration (M. tuberculosis Kurono): 0.006 µg/mL
CCC1Cn2cc([N+](=O)[O-])nc2O1 (stereo not drawn) [CGI-17341],–,bactericidal action to Mycobacterium tuberculosis (H37Rv strain) [1]: has a bactericidal action; activity to M. avium (M. avium): does not have the activity; activity to M. fortuitum (M. fortuitum): does not have the activity; activity to M. intracellulare (M. intracellulare): does not have the activity
"C[C@]1(COc2ccc3nc(N4CCN(Cc5ccc(OC(F)(F)F)cc5)CC4)sc3c2)Cn2cc([N+](=O)[O-])nc2O1 [Example 1, (R)-2-methyl-6-nitro-2-(2-(4-(4-trifluoromethoxybenzyl)-piperazine-1-yl)benzothiazole-6-yloxymethyl)-2,3-dihydroimidazo[2,1-b]oxazole]",205.6 to 207.4 °C,MIC (M. tuberculosis Kurono): 0.2 µg/mL
"C[C@]1(COc2ccc(N3CCN(CCOc4ccc(OC(F)(F)F)cc4)CC3)cc2)Cn2cc([N+](=O)[O-])nc2O1 [Example 9, (R)-2-methyl-6-nitro-2-(4-(4-(2-(4-trifluoromethoxyphenoxy)ethyl)piperazine-1-yl)phenoxymethyl)-2,3-dihydroimidazo[2,1-b]oxazole]",–,MIC (M. tuberculosis Kurono): 0.012 µg/mL
C[C@]1(COc2ccc3c(c2)nc(N2CCN(Cc4ccc(OC(F)(F)F)cc4)CC2)n3Cc2ccccc2)Cn2cc([N+](=O)[O-])nc2O1,101.3 to 104 °C,–
C[C@]1(COc2ccc3nc(N4CCC(=Cc5ccc(OC(F)(F)F)cc5)CC4)ccc3c2)Cn2cc([N+](=O)[O-])nc2O1,193.9 to 195.9 °C,–
C[C@]1(COc2ccc(-c3nc(-c4ccc(Cl)cc4)co3)cc2)Cn2cc([N+](=O)[O-])nc2O1,248.8 to 251.5 °C,–
CN(Cc1cc2cc(Cl)ccc2o1)C1CCN(c2ccc(OC[C@@]3(C)Cn4cc([N+](=O)[O-])nc4O3)cc2)CC1,207.4 to 210 °C,–
C[C@]1(COc2ccc(N3CCC(N4CCN(c5ccc(Cl)cc5)CC4)CC3)cc2)Cn2cc([N+](=O)[O-])nc2O1,247 to 249 °C,–
CC1(Cc2ccc(N3CCC(Oc4ccc(OC(F)(F)F)cc4)CC3)cc2)Cn2cc([N+](=O)[O-])nc2O1 (stereo not drawn),184.9 to 186.8 °C,–
C[C@]1(COc2ccc(N3CCC(Oc4ccc(OC(F)(F)F)cc4)CC3)nc2)Cn2cc([N+](=O)[O-])nc2O1,185.9 to 186.7 °C,–
